Data reported in paper PMC10041525, “New Dual Inhibitors of Bacterial Topoisomerases with Broad-Spectrum Antibacterial Activity and In Vivo Efficacy against Vancomycin-Intermediate Staphylococcus aureus” (Journal of Medicinal Chemistry, 2023).

How the values were obtained:
[1] = tested on: 100 A. baumannii strains (50 MDR, 50 non-MDR); test: MIC broth microdilution at IHMA Europe, panel of 100 strains; assay type: cell-based
E. coli ATCC 35218 = test: IHMA QC MIC; assay type: cell-based
Protocol: The panel of Hungarian clinical isolates and controls measured following the same method as detailed above, and albeit measurements were carried out in 384-well microtiter plates (Corning Inc.).

piperacillin/tazobactam [Piperacillin Tazobactam]
MIC ([1]; A. baumannii IHMA 2193607, Venezuela 2020, MDR): >128 µg/mL
MIC ([1]; A. baumannii IHMA 2195460, Italy 2020, MDR): >128 µg/mL
MIC ([1]; A. baumannii IHMA 2196914, South Africa 2020, MDR): >128 µg/mL
MIC ([1]; A. baumannii IHMA 2196959, South Africa 2020, MDR): >128 µg/mL
MIC ([1]; A. baumannii IHMA 2203763, Spain 2020, MDR): >128 µg/mL
MIC ([1]; A. baumannii IHMA 2205144, Korea, South 2020, MDR): >128 µg/mL
MIC ([1]; A. baumannii IHMA 2206459, Taiwan 2020, MDR): >128 µg/mL
MIC ([1]; A. baumannii IHMA 2206507, Taiwan 2020, Non-MDR): ≤0.25 µg/mL
MIC ([1]; A. baumannii IHMA 2212575, Hungary 2020, Non-MDR): 4 µg/mL
MIC ([1]; A. baumannii IHMA 2215307, Hong Kong 2020, Non-MDR): 1 µg/mL
MIC ([1]; A. baumannii IHMA 2216586, Taiwan 2020, MDR): >128 µg/mL
MIC ([1]; A. baumannii IHMA 2223200, Colombia 2020, Non-MDR): ≤0.25 µg/mL
MIC ([1]; A. baumannii IHMA 2224017, Panama 2020, MDR): >128 µg/mL
MIC ([1]; A. baumannii IHMA 2224303, Panama 2020, Non-MDR): 16 µg/mL
MIC ([1]; A. baumannii IHMA 2231797, Greece 2020, MDR): >128 µg/mL
MIC ([1]; A. baumannii IHMA 2233099, Guatemala 2020, MDR): >128 µg/mL
MIC ([1]; A. baumannii IHMA 2233430, Kazakhstan 2020, MDR): >128 µg/mL
MIC ([1]; A. baumannii IHMA 2233548, Kazakhstan 2020, Non-MDR): ≤0.25 µg/mL
MIC ([1]; A. baumannii IHMA 2238964, Thailand 2020, MDR): >128 µg/mL
MIC ([1]; A. baumannii IHMA 2239052, Thailand 2020, Non-MDR): ≤0.25 µg/mL
MIC ([1]; A. baumannii IHMA 2261047, Belgium 2020, MDR): >128 µg/mL
MIC ([1]; A. baumannii IHMA 2261633, Canada 2020, Non-MDR): ≤0.25 µg/mL
MIC ([1]; A. baumannii IHMA 2274234, South Africa 2020, MDR): >128 µg/mL
MIC ([1]; A. baumannii IHMA 2274364, South Africa 2020, MDR): >128 µg/mL
MIC ([1]; A. baumannii IHMA 2275237, Chile 2020, Non-MDR): ≤0.25 µg/mL
MIC ([1]; A. baumannii IHMA 2275751, Jordan 2020, MDR): >128 µg/mL
MIC ([1]; A. baumannii IHMA 2316205, United States 2020, MDR): >128 µg/mL
MAX (maximum MIC; all strains inhibited) ([1]; MDR n = 50): >128 µg/mL
MIC50 ([1]; MDR n = 50): >128 µg/mL
MIC90 ([1]; MDR n = 50): >128 µg/mL
MIN (minimum MIC) ([1]; MDR n = 50): >128 µg/mL
Percentage I ([1]; MDR n = 50): 0%
Percentage R ([1]; MDR n = 50): 100%
Percentage S ([1]; MDR n = 50): 0%
Cumulative % at MIC ([1]; MDR n=50, MIC >128 µg/mL): 100%
No. of isolates at MIC ([1]; MDR n=50, MIC >128 µg/mL): 50
MAX (maximum MIC; all strains inhibited) ([1]; all isolates n = 100): >128 µg/mL
MIC50 ([1]; all isolates n = 100): 16 µg/mL
MIC90 ([1]; all isolates n = 100): >128 µg/mL
MIN (minimum MIC) ([1]; all isolates n = 100): ≤0.25 µg/mL
Percentage I ([1]; all n = 100, CLSI breakpoints): 0%
Percentage R ([1]; all n = 100, CLSI breakpoints): 50%
Percentage S ([1]; all n = 100, CLSI breakpoints): 50%
Cumulative % at MIC ([1]; all n=100, MIC 0.5 µg/mL): 36%
No. of isolates at MIC ([1]; all n=100, MIC 0.5 µg/mL): 1
Cumulative % at MIC ([1]; all n=100, MIC 1 µg/mL): 37%
No. of isolates at MIC ([1]; all n=100, MIC 1 µg/mL): 1
Cumulative % at MIC ([1]; all n=100, MIC 2 µg/mL): 39%
No. of isolates at MIC ([1]; all n=100, MIC 2 µg/mL): 2
Cumulative % at MIC ([1]; all n=100, MIC […] µg/mL): 50%
No. of isolates at MIC ([1]; all n=100, MIC […] µg/mL): 3
Cumulative % at MIC ([1]; all n=100, MIC >128 µg/mL): 100%
No. of isolates at MIC ([1]; all n=100, MIC >128 µg/mL): 50
Cumulative % at MIC ([1]; all n=100, MIC ≤[…]): 35%
No. of isolates at MIC ([1]; all n=100, MIC ≤[…]): 35
MAX (maximum MIC) ([1]; non-MDR n = 50): 16 µg/mL
MIC50 ([1]; non-MDR n = 50): ≤0.25 µg/mL
MIC90 ([1]; non-MDR n = 50): 4 µg/mL
MIN (minimum MIC) ([1]; non-MDR n = 50): ≤0.25 µg/mL
Percentage I ([1]; non-MDR n = 50): 0%
Percentage R ([1]; non-MDR n = 50): 0%
Percentage S ([1]; non-MDR n = 50): 100%
Cumulative % at MIC ([1]; non-MDR n=50, MIC 0.5 µg/mL): 72%
No. of isolates at MIC ([1]; non-MDR n=50, MIC 0.5 µg/mL): 1
Cumulative % at MIC ([1]; non-MDR n=50, MIC 1 µg/mL): 74%
No. of isolates at MIC ([1]; non-MDR n=50, MIC 1 µg/mL): 1
Cumulative % at MIC ([1]; non-MDR n=50, MIC 2 µg/mL): 78%
No. of isolates at MIC ([1]; non-MDR n=50, MIC 2 µg/mL): 2
Cumulative % at MIC ([1]; non-MDR n=50, MIC […] µg/mL): 100%
No. of isolates at MIC ([1]; non-MDR n=50, MIC […] µg/mL): 3
Cumulative % at MIC ([1]; non-MDR n=50, MIC ≤[…]): 70%
No. of isolates at MIC ([1]; non-MDR n=50, MIC ≤[…]): 35
MIC (QC, repeated tests) (E. coli ATCC 35218): 1 µg/mL
